# From ChEMBL document CHEMBL2331464, “Diarylheptanoids and flavonoids from viscum album inhibit LPS-stimulated production of pro-inflammatory cytokines in bone marrow-derived dendritic cells” (J Nat Prod, 2013)
# How the values were obtained:
# Settings in all cases: bmdc
# [1] = Antiinflammatory activity in C57BL/6 mouse BMDCs assessed as inhibition of LPS-stimulated IL-12p40 production treated 1 hr before LPS challenge measured 16 hrs post stimulation by ELISA
# [2] = Antiinflammatory activity in C57BL/6 mouse BMDCs assessed as inhibition of LPS-stimulated TNF-alpha production treated 1 hr before LPS challenge measured 16 hrs post stimulation by ELISA
# [3] = Cytotoxicity against C57BL/6 mouse BMDCs at 2 to 50 microM by MTT assay
# [4] = system: IL-6 (mouse); test: Antiinflammatory activity in C57BL/6 mouse BMDCs assessed as inhibition of LPS-stimulated IL-6 production treated 1 hr before LPS challenge measured 16 hrs post stimulation by ELISA
SMILES,IC50 [1] [µM],IC50 [2] [µM],Activity [3],IC50 [4] [µM]
COc1cc(O)c2c(c1)O[C@H](c1ccc(O[C@@H]3O[C@H](CO)[C@@H](O)[C@H](O)[C@H]3O[C@@H]3OC[C@](O)(CO[C@@H]4OC[C@](O)(CO)[C@H]4O)[C@H]3O)c(OC)c1)CC2=O,> 50,> 50,Non-toxic,> 50
COc1cc(O)c2c(c1)O[C@H](c1ccc(O[C@@H]3O[C@H](CO)[C@@H](O)[C@H](O)[C@H]3O[C@@H]3OC[C@](O)(CO)[C@H]3O)c(OC)c1)CC2=O,> 50,> 50,Non-toxic,> 50
COc1cc([C@@H]2CC(=O)c3c(O)cc(O[C@@H]4O[C@H](CO)[C@@H](O)[C@H](O)[C@H]4O[C@@H]4OC[C@](O)(CO)[C@H]4O)cc3O2)ccc1O,> 50,> 50,Non-toxic,> 50
COc1cc([C@@H]2c3c(cc(OC)c(O)c3OC)C[C@H](CO)[C@H]2CO[C@@H]2O[C@H](CO)[C@@H](O)[C@H](O)[C@H]2O)cc(OC)c1O,14.6,> 50,Non-toxic,> 50
COc1cc(/C=C/CO)cc(OC)c1O[C@@H]1O[C@H](CO)[C@@H](O)[C@H](O)[C@H]1O[C@@H]1OC[C@](O)(CO)[C@H]1O,> 50,> 50,Non-toxic,> 50
CO[C@@H](/C=C/c1ccc(O)cc1)C[C@@H](O)CCc1ccc(O)cc1,0.09,0.32,Non-toxic,0.68
CO[C@H](/C=C/c1ccc(O)cc1)C[C@@H](O)CCc1ccc(O)cc1,11.8,> 50,Non-toxic,> 50
O=C(/C=C/c1ccc(O)cc1)C[C@@H](O)CCc1ccc(O)cc1,> 50,> 50,Non-toxic,> 50
COc1cc(O)c2c(=O)c(OC)c(-c3ccc(O[C@@H]4O[C@H](CO)[C@@H](O)[C@H](O)[C@H]4O[C@@H]4OC[C@](O)(CO)[C@H]4O)c(OC)c3)oc2c1,3.86,1.01,Non-toxic,8.96
COc1cc(O)c2c(=O)c(O[C@H]3O[C@H](COC(=O)CC(C)(O)CC(=O)O)[C@@H](O)[C@H](O)[C@H]3O)c(-c3ccc(O[C@@H]4O[C@H](CO)[C@@H](O)[C@H](O)[C@H]4O)c(OC)c3)oc2c1 (some centres undefined),> 50,> 50,Non-toxic,> 50
COc1cc(O)c2c(=O)c(O[C@H]3O[C@H](COC(=O)CC(C)(O)CC(=O)OC[C@H]4O[C@@H](Oc5c(OC)cc(/C=C/CO)cc5OC)[C@H](O)[C@@H](O)[C@@H]4O)[C@@H](O)[C@H](O)[C@H]3O)c(-c3ccc(O[C@@H]4O[C@H](CO)[C@@H](O)[C@H](O)[C@H]4O)c(OC)c3)oc2c1 (some centres undefined),> 50,> 50,Non-toxic,> 50
COc1cc(-c2cc(=O)c3c(O)cc(O[C@@H]4O[C@H](CO)[C@@H](O)[C@H](O)[C@H]4O[C@@H]4OC[C@](O)(CO)[C@@H]4O)cc3o2)ccc1O,76.8,> 50,Non-toxic,> 50
COc1cc(O)c2c(=O)cc(-c3ccc(O[C@@H]4O[C@H](CO)[C@@H](O)[C@H](O)[C@H]4O[C@@H]4OC[C@](O)(CO)[C@H]4O)c(OC)c3)oc2c1,> 50,> 50,Non-toxic,> 50
COc1cc([C@H]2OC[C@H]3[C@@H]2CO[C@@H]3c2cc(OC)c(O)c(OC)c2)ccc1O,2,22.3,Non-toxic,20.9
COc1cc([C@H]2c3c(cc(OC)c(O)c3OC)C[C@@H](CO)[C@@H]2CO[C@@H]2O[C@H](CO)[C@@H](O)[C@H](O)[C@H]2O)cc(OC)c1O,> 50,> 50,Non-toxic,> 50
COc1cc([C@H]2OC[C@H]3[C@@H]2CO[C@@H]3c2ccc(O)c(OC)c2)ccc1O [(+)-PINORESINOL],–,–,Non-toxic,–
COc1cc([C@@H]2OC[C@@H]3[C@H]2CO[C@H]3c2ccc(O)c(OC)c2)ccc1O [(+)-PINORESINOL],28.6,> 50,–,> 50
C=C(C)[C@@H]1CC[C@]2(C(=O)O)CC[C@]3(C)[C@H](CC[C@@H]4[C@@]5(C)CC[C@H](O)C(C)(C)[C@@H]5CC[C@]43C)[C@@H]12 [BETULINIC ACID],3.61,19.4,Non-toxic,21.3
CC1(C)CC[C@]2(CO)CC[C@]3(C)C(=CC[C@@H]4[C@@]5(C)CC[C@H](O)C(C)(C)[C@@H]5CC[C@]43C)[C@@H]2C1 [ERYTHRODIOL],13.5,> 50,Non-toxic,> 50
C=CC(C)(O)CC/C=C(\C)CCC=C(C)C (centres undefined) [NEROLIDOL],7.57,2.02,Non-toxic,20.2
CC1(C)CC[C@]2(C(=O)O)CC[C@]3(C)C(=CC[C@@H]4[C@@]5(C)CC[C@H](O)C(C)(C)[C@@H]5CC[C@]43C)[C@@H]2C1 [OLEANOLIC_ACID],> 50,> 50,Non-toxic,> 50
C[S+]([O-])c1ccc(-c2nc(-c3ccc(F)cc3)c(-c3ccncc3)[nH]2)cc1 (centres undefined) [SB-203580],5.21,7.53,–,3.45
COc1cc(/C=C/CO)cc(OC)c1O[C@@H]1O[C@H](CO)[C@@H](O)[C@H](O)[C@H]1O [SYRINGIN],> 50,> 50,Non-toxic,> 50
C/C(=C\CO)CCC[C@H](C)CCC[C@H](C)CCCC(C)C [TRANS-PHYTOL],3.62,1.22,Non-toxic,2.02
COc1cc([C@@H]2CC(=O)c3c(O)cc(O[C@@H]4O[C@H](CO)[C@@H](O)[C@H](O)[C@H]4O[C@@H]4OC[C@](O)(CO[C@@H]5OC[C@](O)(CO)[C@H]5O)[C@H]4O)cc3O2)ccc1O [VISCUMNEOSIDE V],> 50,> 50,Non-toxic,> 50
CC(=O)O[C@H]1CC[C@]2(C)[C@H]3CC=C4[C@@H]5CC(C)(C)CC[C@]5(C)CC[C@@]4(C)[C@]3(C)CC[C@H]2C1(C)C [beta-AMYRIN ACETATE],> 50,> 50,Non-toxic,> 50
